Source: patent publication US20250051283A1, “THERAPEUTIC COMPOUNDS AND METHODS” (priority 2023, published 2025)
Where two headings read alike, the source gives them in different places.

Test system: EV-D68 US/MO/14-18947
Test: CPE assay (neutral red) with EV-D68 US/MO/14-18947 in R.D. cells
Format: cell-based, Enterovirus D68
Settings: CPE assay, EV-D68 US/MO/14-18947 in R.D. cells, read-out: Antiviral EC50
Protocol: Cell lines and viruses. Human rhabdomyosarcoma (R.D., ATCC, CCL-136) cells were maintained at 37° C. in a 5% CO2 atmosphere and cultured in Dulbecco's modified Eagle's medium (DMEM) supplemented with 10% fetal bovine serum (FBS) and 1% penicillin-streptomycin antibiotics. The following reagents were obtained through BEI Resources, NIAID, NIH: Human Enterovirus D68, US/MO/14-18949, NR-49130; Enterovirus D68, US/MO/14-18947, NR-49129; Enterovirus D68, US/IL/14-18952, NR-49131; Enterovirus D68, US/KY/14-18953, NR-49132; Enterovirus D68, US/IL/14-18956, NR-49133.
Antiviral assays. Cells for antiviral assays were seeded and grown overnight at 37° C. in a 5% CO2 atmosphere for ˜90% confluency the next day. For all infections, cells were washed with PBS containing magnesium and calcium and infected with virus diluted in DMEM with 2% FBS and 30 mM MgCl2. Viruses were incubated for at least 1 h at 33° C. in a 5% CO2 atmosphere, followed by the addition of compound as well as 1% penicillin-streptomycin. For CC50 measurements, the experiment was performed similarly but excluded viral infection. For cytopathic effect (CPE) assays, cells were stained with 66 µg/mL neutral red for 2 h and neutral red uptake was measured at absorbance 540 nm using a Multiskan FC Microplate Photometer (ThermoFisher Scientific). The EC50 and CC50 values were calculated from best-fit dose response curves using GraphPad Prism. For plaque reduction assays, an 1.2% avicel microcrystalline cellulose (FMC BioPolymer, Philadelphia, PA) overlay was used and cells were stained after 3 days as previously described^26.

| Structure (SMILES) | EC50 (Enterovirus D, EVD68, RD) | EC50 |
| --- | --- | --- |
| CCC[C@@H](C#N)NC(=O)[C@@H]1[C@H]2CCC[C@H]2CN1C(=O)C(NC(=O)CC12CC3CC(CC(C3)C1)C2)C(C)(C)C (stereo partly drawn) [Jun11191, (1S,3aR,6aS)-2-((S)-2-(2-((3S,5S,7S)-adamantan-1-yl)acetamido)-3,3-dimethylbutanoyl)-N—((S)-1-cyanobutyl) octahydro-cyclopenta[c]pyrrole-1-carboxamide] | 3920 nM |  |
| CCC[C@H](NC(=O)[C@@H]1[C@H]2CCC[C@H]2CN1C(=O)[C@@H](NC(=O)C[C@@]12C[C@@H]3C[C@@H](C[C@@](O)(C3)C1)C2)C(C)(C)C)C(=O)C(=O)NC1CC1 [Jun922, (1S,3aR,6aS)—N—((S)-1-(cyclopropylamino)-1,2-dioxohexan-3-yl)-2-((S)-2-(2-((1r,3R,5R,7S)-3-hydroxyadamantan-1-yl)acetamido)-3,3-dimethylbutanoyl)octa-hydrocyclopenta[c]pyrrole-1-carboxamide] |  | 1850 nM |
| CCC[C@H](NC(=O)[C@@H]1[C@H]2CCC[C@H]2CN1C(=O)[C@@H](NC(=O)CC1C2CC3CC(C2)CC1C3)C(C)(C)C)C(=O)C(=O)NC1CC1 (stereo partly drawn) [Jun1024, (1S)-2-((S)-2-(2-((1S,3S,5S,7S)-adamantan-2-yl)acetamido)-3,3-dimethylbutanoyl)-N—((S)-1-(cyclopropylamino)-1,2-dioxohexan-3-yl)octahydrocyclopenta[c]pyrrole-1-carboxamide] |  | 180 nM |
